From patent US10668047B2, “Aziridine containing DNA alkylating agents” (priority 2015, dated 2020)
Where two headings read alike, the source gives them in different places.

Key:
[1] = MTD determination, administered daily for 5 days (preliminary studies for the H460 xenograft model); type: in vivo, nude mice (nu/nu); settings: on the basis of weight loss and behavioral signs, female nude mice
Method: On the basis of the favorable in vitro data for these compounds, their anti-tumor activities in the H460 (NSCLC) human tumor xenograft model were evaluated. H460 cells (lx 10^6) were subcutaneously implanted in the flanks of pathogen-free homozygous female nude mice (nu/nu, Charles River Laboratories). When tumor size reached 100-150 mm^3, animals were randomized to 10 mice per treatment group. All tested compounds were formulated in 5% DMSO, 5% Tween 80 in D5W. The doses of all the compounds were chosen on the basis of preliminary studies to define the MTD of each compound when administered daily for 5 days. On the basis of weight loss and behavioral signs, the MTDs of TH2565 and TH2566 were determined to be 2 mg/kg, respectively. The comparative tumor volume reductions for certain compounds are graphically illustrated in FIGS. 1A-1C.

[2] = system: H460 non-cell lung cancer human tumor cell line; assay: In vitro human tumor cell line cytotoxicity (proliferation) assay, AlamarBlue; type: cell-based
Method in brief: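 H460 cells (4×10^3/well) attached for 24 h, then were exposed to compound for 2 hours at 37° C. before washout and 70 hrs further growth in fresh medium. Viable cells were measured by AlamarBlue, and IC50 (50% growth inhibition) was determined relative to media-only control.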

[3] = Homo sapiens, NCI-H460, read-out: IC50 (N2), H460 cells, under nitrogen, 2 hrs exposure, wash, then 70 hrs growth
[4] = Homo sapiens, NCI-H460, read-out: IC50 (air), H460 cells, under air, 2 hrs exposure, wash, then 70 hrs growth
[5] = Homo sapiens, NCI-H460, H460 cells, under air, 2 hrs exposure, wash, then 70 hrs growth, read-out: IC50 (air)
[6] = Homo sapiens, NCI-H460, H460 cells, under nitrogen, 2 hrs exposure, wash, then 70 hrs growth, read-out: IC50 (N2)

Row | SMILES | IC50 [2, 5] [nM] | IC50 [2, 6] [nM] | other results
1 | CC(OP(=O)(N1CC1)N1CC1)c1ccc([N+](=O)[O-])cc1 (single isomer, unassigned) [compound 2565] | – | – | MTD at 5 days ([1]; nude (nu/nu), mouse, in vivo): 2 mg/kg; IC50 [2, 3]: 100 nM; IC50 [2, 4]: 18000 nM
2 | CC(OP(=O)(N1CC1)N1CC1)c1ccc([N+](=O)[O-])cc1 (single isomer, unassigned) [compound 2566] | – | – | MTD [1]: 2 mg/kg; IC50 ([2]; read-out: IC50 (N2), H460 cells, under nitrogen, 2 hrs exposure, wash, then 70 hrs growth): 100 nM; IC50 ([2]; read-out: IC50 (air), H460 cells, under air, 2 hrs exposure, wash, then 70 hrs growth): 23000 nM
3 | CC(OP(=O)(N1CC1)N1CC1)c1ccc([N+](=O)[O-])c(N2CCC(c3ccccc3)CC2)c1 (stereo not shown) [compound 2750] | 23000 | 2400 | –
4 | CC(OP(=O)(N1CC1)N1CC1)c1ccc([N+](=O)[O-])c(N2CCN(C(C)C)CC2)c1 (stereo not shown) [compound 2751] | 36000 | 1700 | –
5 | CC(OP(=O)(N1CC1)N1CC1)c1ccc([N+](=O)[O-])c(N2CCC(O)CC2)c1 (stereo not shown) [compound 2752] | 270000 | 5700 | –
6 | COCCN(CCOC)c1cc(C(C)OP(=O)(N2CC2)N2CC2)ccc1[N+](=O)[O-] (stereo not shown) [compound 2753] | 19000 | 3200 | –
7 | Cc1nccn1-c1cc(C(C)OP(=O)(N2CC2)N2CC2)c(F)cc1[N+](=O)[O-] (stereo not shown) [compound 2755] | 4400 | 30 | –
8 | CC(OP(=O)(N1CC1)N1CC1)c1ccc([N+](=O)[O-])c(N2CCN(Cc3cnc([N+](=O)[O-])n3C)CC2)c1 (stereo not shown) [compound 2756] | – | – | IC50 [2, 3]: 2800 nM; IC50 [2, 4]: 45000 nM
9 | CC(OP(=O)(N1CC1)N1CC1)c1ccc([N+](=O)[O-])c(N(C)CCN2CCOCC2)c1 (stereo not shown) [compound 2757] | – | – | IC50 [2, 3]: 3800 nM; IC50 [2, 4]: 380000 nM
10 | CC(OP(=O)(N1CC1)N1CC1)c1ccc([N+](=O)[O-])c(-n2cnc(C(C)(C)C)c2)c1 (stereo not shown) [compound 2759] | 100000 | 400 | –
11 | CC(OP(=O)(N1CC1)N1CC1)c1cc(-n2cnc(CO)c2)c([N+](=O)[O-])cc1F (stereo not shown) [compound 2760] | 53000 | 2400 | –
12 | CC(OP(=O)(N1CC1)N1CC1)c1ccc([N+](=O)[O-])c(-n2ccc3ncccc32)c1 (stereo not shown) [compound 2763] | 5000 | 100 | –
13 | CC(OP(=O)(N1CC1)N1CC1)c1ccc([N+](=O)[O-])c(-n2ccnc2Cl)c1 (stereo not shown) [compound 2765] | 8100 | 30 | –
14 | CC(OP(=O)(N1CC1)N1CC1)c1ccc([N+](=O)[O-])c(-n2ccnc2-c2ccccc2)c1 (stereo not shown) [compound 2766] | 4800 | 700 | –
15 | CC(OP(=O)(N1CC1)N1CC1)c1ccc([N+](=O)[O-])c(-n2ncc3ccccc32)c1 (stereo not shown) [compound 2767] | 2300 | 200 | –
16 | CC(OP(=O)(N1CC1)N1CC1)c1ccc([N+](=O)[O-])c(-n2nccn2)c1 (stereo not shown) [compound 2771] | 14000 | 30 | –
17 | CC(OP(=O)(N1CC1)N1CC1)c1ccc([N+](=O)[O-])c(-n2ccnn2)c1 (stereo not shown) [compound 2772] | 26000 | 50 | –
18 | CC(OP(=O)(N1CC1)N1CC1)c1ccc([N+](=O)[O-])c(Br)c1 (stereo not shown) [compound 2773] | 16000 | 700 | –
19 | CC(OP(=O)(N1CC1)N1CC1)c1ccc([N+](=O)[O-])c(-c2ccc(C(F)(F)F)cc2)c1 (stereo not shown) [compound 2774] | 3500 | 800 | –
20 | CC(OP(=O)(N1CC1)N1CC1)c1ccc([N+](=O)[O-])c(-c2ccc(C#N)cc2)c1 (stereo not shown) [compound 2775] | 2500 | 300 | –
21 | C=Cc1cc(C(C)OP(=O)(N2CC2)N2CC2)ccc1[N+](=O)[O-] (stereo not shown) [compound 2776] | 2500 | 400 | –
22 | CC(OP(=O)(N1CC1)N1CC1)c1ccc([N+](=O)[O-])c(-n2nnc3ccccc32)c1 (stereo not shown) [compound 2777] | 3400 | 10 | –
